Tests used:
[1] = Soil washing: amount of oil removed from contaminated sand
Description: Oil-contaminated soil was prepared in the following manner. North Sea crude oil (2.4 to 2.6 g) (Chevron, San Ramon, Calif., USA) was poured into a beaker. Tetrahydrofuran (THF) (to dissolution, approximately 50 mL) was added and the beaker and its contents were swirled to dissolve the oil. Ottawa sand (60 g) (EMD Chemicals, Gibbstown N.J., USA) was poured into the beaker and the contents of the beaker was swirled again. The beaker was left uncovered overnight at room temperature to allow the THF to evaporate. Then, the sand was broken up and mixed in the beaker. The beaker was left uncovered for a further time period so that total elapsed time for evaporation was 24 hours. The contaminated sand was then poured into a pre-weighed petrie dish, which was then placed into an oven at 110° C. and heated for 24 hours. After the petrie dish was removed from the oven and had cooled to room temperature, the sample and dish were weighed together. The contaminated sand was then transferred to a 100 mL amber vial for storage. This heat treatment was intended to simulate weathering of the contaminated soil. This procedure provided a sample of soil with 3.0 wt % oil contamination.
A 0.5 wt % surfactant solution was prepared in the following manner: surfactant (0.25 g) was added to a 50 mL volumetric flask. Deionized water at room temperature was added to achieve a total mass of 50 g. Sonication of the solution assisted with dissolving the surfactant.
A 0.5 wt % surfactant solution was prepared in the following manner: Deionized water was heated to 50° C. Surfactant (0.25 g) was added to a 50 mL volumetric flask. The heated water was added to achieve a total mass of 50 g. Swirling and shaking of the flask was sufficient to dissolve the surfactant.
A 0.1 wt % surfactant solution was also prepared using the above-described procedure wherein 0.0583 g of surfactant was used.
The contaminated sand of Example 7A was washed in the following manner. Three 20 mL vials were labelled and their empty masses were, recorded. Contaminated sand (5.1 g) was added to each vial and the vial's new masses were recorded. The surfactant solution was added to each vial using a syringe to achieve 10 g of solution. A stir bar was also added. The vials were capped with TEFLON®-lined lids and shaken manually for 20 seconds. The vials were placed in a beaker, to keep them upright. The beaker was placed on a stir plate and the vials were stirred at 470 rpm for 1 hour. Each vial was then manually shaken for 20 seconds. Then the stirring was continued for a second hour. The liquid portion of the samples was poured into separate 20 mL vials and is referred to below as “first decant solution”. The original vials (and their remaining contents) were each rinsed with 50 mL of deionized water and that rinse water was then added to 50 mL Wheaton jars and is referred to below as “wash solution”.
Sand washing was also carried out at elevated temperature by following the procedure as described in Example 7D with the difference that vials were placed into a 50° C. water bath. The water bath was placed on a stirring hot plate and was maintained 50° C. and the vials were stirred at 470 rpm for 1 hour. Each vial was then manually shaken for 20 seconds. Then the stirring was continued for a second hour. The liquid portion of the samples was poured into separate 20 mL vials and is referred to below as “first decant solution”. The original vials were each rinsed with 50 mL of deionized water and that rinse water was then added to 50 mL Wheaton jars and is referred to below as “wash solution”.
Oil remaining on the soil of Examples 7A-E was quantified in the following manner. An extraction was performed using 10 mL of a 1:1 dichloromethane:hexanes liquid mixture. This mixture was added to vials housing washed sand (the term “washed sand” refers to 5.1 g of contaminated sand from Example 7A that has been washed and rinsed using the procedures of Example 7D or 7E). […]

[2] = Solubility observations (aqueous solution, DMSO); format: physicochemical; conditions: DMSO
Description: The following study confirmed that compounds (1A) and (1N) reversibly convert from the neutral form (1N) to the anionic form (1A) and back to the neutral form over and over again with substantially no loss of product. The conversion was verified visually since the neutral form was not soluble in aqueous solution and appeared as a white precipitate in colourless liquid while the anionic form was fully soluble in aqueous solution and appeared as a clear yellow liquid (see FIG. 2). In addition to visual examination, ^1H NMR studies that are described below confirmed the presence of the hydroxyl proton in the spectra of the neutral form.
(§1) Since n-octyl 4-hydroxy-3-nitrobenzoate (1N) and the […] salt of (1A) are soluble in DMSO and have some characteristic signals in the ^1H NMR spectrum, […] was used as a solvent to monitor the non-aqueous switchability by NMR spectroscopy.

[3] = Switchability using DMSO-d6 (CO2 bubbling, 1H NMR); format: physicochemical; conditions: 0.01 M solution in DMSO-d6, non-aqueous
Description: as §1

[4] = 50° C. Washing, 0.5 wt % surfactant solution
[5] = Room Temperature Washing, 0.5 wt % surfactant solution

Row | Molecule | Amount of oil removed from sand [1, 4] | Amount of oil removed from sand [1, 5] | solubility in DMSO [2] | conversion on CO2 bubbling by 1H NMR [3] | Amount of oil removed from sand ([1]; 50° C. Washing, 0.1 wt % surfactant solution) | Amount of oil removed from sand ([1]; Room Temperature Washing, 0.5 wt % surfactant solution, Sulfate) | Amount of oil removed from sand ([1]; Room Temperature Washing, 0.5 wt % surfactant solution, listed as sodium dodecyl sulfate (SDS), Sulfate)
1 | Triton X-100 | 94% | 68% |  |  |  |  | 
2 | potassium 4-hydroxy-3-nitrobenzoate [potassium salt of (1A)] |  |  | soluble | no conversion was apparent |  |  | 
3 | CCCCCCCCOC(=O)c1ccc(O)c([N+](=O)[O-])c1.[Na] [Sodium octyl 4-hydroxy-3-nitrobenzoate] | 94-97% | 82% |  |  | 94% |  | 
4 | CCCCCCCCCCCCOS(=O)(=O)[O-].[Na+] [Sodium Dodecyl Sulfate (SDS), Sodium Dodecyl Sulfate] | 86% |  |  |  |  | 40% | 40%
